From patent publication US20090036437A1, “PHARMACEUTICAL COMPOSITION COMPRISING PHENOXAZINIUM COMPOUND AS AN ACTIVE INGREDIENT” (priority 2005, published 2009)
Like-named read-outs stand apart in the source and are kept apart here.

Tests used:
Format in all cases: cell-based
[1] = test system: Leishmania donovani (MHOM/ET/67/L82 strain); experiment: in vitro growth-inhibiting screening assay, protozoa of Leishmaniasis; conditions: amastigotes; 72 h, Alamar Blue; read-out: growth-inhibiting concentration (nM) Leishmania donovani
Procedure: This test was done using the protozoa of Leishmania donovani (MHOM/ET/67/L82 strain). The protozoa were subcultured using Syrian Golden hamster and an amastigote was obtained therefrom. The amastigotes were cultured in SM medium supplemented with 10% of heat-treated fetal calf serum (pH 5.4) under CO2 concentration of 5%, at 37° C.
A test sample was prepared by dissolving the test compounds according to the present invention and a positive control drug (Miltefosine) in DMSO to a predetermined concentration. Culture medium containing a predetermined number of the protozoa was added into each well of a 96-well culture plate, and the concentration of the amastigotes was measured by means of CASY cell analysis system (Dermany, Scharfe Co.). Test sample comprising the predetermined amount of the test compound, and DMSO without the test compound were added to the wells in duplicate.
(§1) After incubation of the culture plate for 72 hours in an incubator, a growth-inhibiting activity was assayed as follows. Alamar Blue aqueous solution (10 μL) was added to each well followed by a further two-hour culture. The culture plate was then attached to a fluorescence micro titer plate reader (Spectramax Gemeni XS; U.S. Molecular device Co.), the intensity of fluorescence at 588 nm was detected with excitation wave length of 536 nm to calculate an infection ratio of the protozoa with respect to a group trated with the test sample and a control group. A growth-inhibiting ratio was then calculated from the resulting infection ratio in accordance with the following equation to determine 50% growth-inhibiting concentration (EC50).
(§2) Growth-inhibiting ratio (%)=[1−(b−a)/(c−a)]×100 • a: Initial infection ratio; • b: Infection ratio of the test sample group; and • c: Infection ratio of the control group.
A selective toxicity coefficient, which is used as an index for the selective toxicity for the protozoa of Leishmaniasis, was calculated by the following equation, and the pharmaceutical effect was determined.
A selective toxicity coefficient=(EC50 value of the test sample for rat L6 cell)/(EC50 value of the test sample for the protozoa of Leishmaniasis).

[2] = test system: Rat L6 cell (rat skeletal myoblast cell); experiment: in vitro growth-inhibiting assay of rat L6 cells
Procedure: Rat L6 cell (rat skeletal myoblast cell) was cultured in RPMI-1640 culture medium supplemented with 1% of L-glutamine (200 mM) and fetal calf serum (10%) under 5% CO2 concentration at 37° C. A test sample was prepared by dissolving the test compounds according to the present invention and a positive control drug in DMSO to a predetermined concentration. After pre-culture had been finished, the culture medium containing the cells in a logarithmic phase was placed into each well of a 96-well culture plate, and the test sample comprising the predetermined amount of the test compound, and DMSO without the test compound were added to the wells in duplicate.
After incubation of the culture plate for 72 hours in an incubator, a growth-inhibiting activity was assayed as follows. Alamar Blue aqueous solution (10 μL) was added to each well followed by a further two-hour culture. The culture plate was then attached to a fluorescence micro titer plate reader (Spectramax Gemeni XS; U.S. Molecular Device Co.), and the intensity of fluorescence at 588 nm was detected with an excitation wave length of 536 nm. A residual ratio of L6 cells was calculated with respect to a group treated with the test sample and a control group. A growth-inhibiting ratio for L6 cells was then calculated from the resulting residual ratio in accordance with the following equation to determine 50% growth-inhibiting concentration (EC50).
Growth-inhibiting ratio (%)=[1−(C−A)/(B−A)]×100 • A: Initial number of cells; • B: Number of the cells in the control after 3 days; and • C: Number of the cells treated with the test sample after 3 days Determination of Pharmaceutical effect for Chloroquine-Resistant Malaria

[3] = test system: Trypanosoma brucei rhodensiense (STIB 900 strain); experiment: in vitro growth-inhibiting screening assay, protozoa of African trypanosomiasis; conditions: for EC50: 72 h, Alamar Blue, read-out: 50% growth-inhibiting concentration (nM) Trypanosoma brucei rhod.
Procedure: This test was done using a trypomastigote of the protozoa of Trypanosoma brucei rhodensiense (STIB 900 strain) ranging in blood stream. MEM medium sterilized by filtration was supplemented with 25 mM of N-2-hydroxyethylpiperazine-2-ethanesulfonic acid (HEPES), 1 g/L of glucose, 1% of MEM non-essential amino acids, 0.2 mM of 2-mercaptoethanol, 2 mM of sodium pyruvate, 1 mM of hypoxathine and 15% of heat-treated horse serum. The protozoa were cultured under CO2 concentration of 5%, at 37° C.
A test sample was prepared by dissolving the test compounds according to the present invention and a positive control drug (Melarsoprol) in DMSO to a predetermined concentration. Culture medium containing the protozoa of 8×10^3, and the test sample comprising the predetermined amount of the test compound, and DMSO without the test compound were added into each well of 96-well culture plate to a final volume of 100 μL in duplicate.
as §1, with “Device” for “device”, “treated” for “trated”
as §2
A selective toxicity coefficient, which is used as an index for the selective toxicity for the protozoa of African trypanosomiasis, was calculated by the following equation, and the pharmaceutical effect was determined.
Selective toxicity coefficient=(EC50 value of the test sample for rat L6 cell)/(EC50 value of the test sample for the protozoa of African typanosomiasis)

[4] = Table 3, 72 h, Alamar Blue, read-out: 50% growth-inhibiting concentration (nM) cytotoxicity L6
[5] = Table 8, read-out: 50% growth-inhibiting concentration (nM) cytotoxicity L6
[6] = Table 9, read-out: 50% growth-inhibiting concentration (nM) cytotoxicity L6
[7] = Table 10, read-out: growth-inhibiting concentration (nM) Cytotoxicity L6

Structure (SMILES) | EC50 [1] [nM] | EC50 [2] [nM] | EC50 [3] [nM] | EC50 [2, 4] [nM] | EC50 [2, 5] [nM] | EC50 [2, 6] [nM] | EC50 [2, 7] [nM] | Selective toxicity ([3]; EC50 rat L6 cell / EC50 protozoa of African trypanosomiasis) | EC50 ([3]; Trypanosoma brucei, STIB900) [nM]
CCN(CC)c1ccc2nc3ccc(=[N+](CC)CC)cc-3oc2c1.[Cl-] [A-1 (60% purity)] | 2810 | 3950 | 181 |  |  |  |  |  | 
CCN(CC)c1ccc2nc3ccc(=[N+](CC)CC)cc-3oc2c1.[Cl-] [A-1 (>95% purity)] |  | 20500 |  |  |  |  |  |  | 
CN(C)c1ccc2nc3ccc(=[N+](C)C)cc-3oc2c1.CN(C)c1ccc2nc3ccc(=[N+](C)C)cc-3oc2c1.[Cl-].[Cl-].[Cl][Zn][Cl] [Compound A-3] | 887 |  | 565 | 8870 | 8870 | 8870 | 8870 |  | 
CC[N+](CC)=c1ccc2nc3ccc(N(C)C)cc3oc-2c1 [Compound A-4] |  |  |  |  |  |  |  | 9.4 | 497
CCCC[N+](CCCC)=c1ccc2nc3ccc(N(CC)CC)cc3oc-2c1.[Cl-] [Compound A-6] | 23 |  | 67.2 | 839 | 839 | 839 | 839 |  | 
CCCC[N+](CCCC)=c1ccc2nc3ccc(N(C)C)cc3oc-2c1.[O-][Cl+3]([O-])([O-])[O-] [Compound A-7] | 6 |  | 113 | 409 | 409 | 409 | 409 |  | 
